Experiments:
[1] = tested on: untransduced A549 cells; assay: Growth inhibition assay (MTT), parental A549 cells; assay type: cell-based, human; settings: 4 days
Description: A549 human lung carcinoma cells, obtained from American Type Culture Collection (ATCC), were maintained in RPMI 1640 medium (Canadian Life Technologies) supplemented with 10% heat-inactivated FBS.
(§1) Gene-modified A549 cells were plated in 96-well flat-bottom tissue culture dishes at a density of 1500 cells per well. Various concentrations of ARA-C or dFdC (Lilly Research Laboratories, Indianapolis, Ind.) were added to cells in a final volume of 100 μl RPMI/10% FBS. Cells were placed at 37° C. and 4 days later exposed to 20 μl of a solution containing 3-(4,5-deimethylthiazol-2-yl)-2,5-diphenyltetrazolium bromide, i.e. MTT, for 4 hours at 37° C., and subsequently to 100 μl of a solubilization buffer (50% N,N-dimethylformamide, 20% SDS) for approximately 15 hours. The optical density was then measured at 570 nm with reference at 630 nm using a multi-well plate reader, thus providing an assessment of the percentage of surviving cells based on the cleavage of MTT by the mitochondrial dehydrogenases of living cells to the detectable formazan. Percent cell survival was ascertained using the following equation: [formula]

[2] = tested on: A549-IRES-EGFP cells; assay: Growth inhibition assay (MTT), control-vector A549 cells; assay type: cell-based, human; settings: 4 days
Description: (§2) . […] Five days following the last transduction round, flow cytometry analysis was performed to determine gene transfer efficiency and transgene expression as evaluated by GFP fluorescence. Stably transduced A549-CD-IRES-EGFP cells were subsequently expanded in complete media only, as well as in the presence of two different concentrations of ARA-C, 1 μM and 2.5 μM, for 12 days.
as §1

[3] = tested on: A549-CD-IRES-EGFP cells; assay: Growth inhibition assay (MTT), CD gene-modified A549 cells; assay type: cell-based, human; settings: for % cell survival: 4 days, MTT
Description: as §2, §1

[4] = tested on: 2.5 μM ARA-C selected A549-CD-IRES-EGFP cells; assay: Growth inhibition assay (MTT), ARA-C-selected CD gene-modified A549 cells; assay type: cell-based, human; settings: 4 days
Description: as §2, §1

[5] = tested on: primary human lymphocytes transduced with IRES-EGFP; assay: Growth suppression assay (trypan blue), control-vector lymphocytes; assay type: cell-based; settings: two weeks
Excerpt: (§3) Primary human lymphocytes were isolated from peripheral blood by Ficoll Hypaque™ centrifugation and plated at a cell density of ˜1×10^6 cells/ml in RPMI supplemented with 10% FBS, 50 U/ml Pen/Strep, and 200 U/ml human IL-2. The next day, lymphocytes were activated with phytohemagglutinin (PHA) for 72 hrs and subsequently co-cultivated over subconfluent 293GPG-CD-IRES-EGFP or control 293GPG-IRES-EGFP virus producers tetracycline withdrawn three days earlier for optimal high titer virion generation. Lipofectaminel was added for a final concentration of 6 μg/ml, and co-cultivation permitted to proceed for 48 hours. Lymphocytes were then carefully collected and three days later plated at a density of 600 000 cells per well of 48-well tissue culture dishes in the absence or presence of various concentrations of ARA-C in a final volume of 800 μl) complete media. After a two week period, viable cells were enumerated by trypan blue exclusion and cell survival measured as such: % cell survival=(number of cells in test well/number of cells grown in media only)×100. (Flow cytometry analysis for CD3 expression was conducted and all cells confirmed to be lymphocytes.)

[6] = tested on: primary human lymphocytes transduced with CD-IRES-EGFP; assay: Growth suppression assay (trypan blue), CD gene-modified lymphocytes; assay type: cell-based; settings: two weeks
Excerpt: as §3

[7] = tested on: primary mouse marrow stromal cells; assay: In vitro selection and enrichment assay of CD gene-modified marrow stroma (flow cytometry); assay type: cell-based; settings: for % GFP+ cells: 10% CD-IRES-EGFP stroma mixture (11.7% without ARA-C); for mean GFP fluorescence: 10% CD-IRES-EGFP stroma mixture (13.0±3.0 without ARA-C)
Description: One female C57BI/6 mouse was sacrificed by CO2 inhalation and bone marrow cells harvested by flushing the hind leg femurs and tibias with DMEM™ supplemented with 10% FBS and 50 U/ml Pen/Strep. Whole marrow was plated in 10 cm (diameter) tissue culture dishes and five days later, the nonadherent hematopoietic cells were discarded and the adherent bone marrow stromal cells cultured (for ˜3 months) at 37° C. with 5% CO2. Supernatant containing virions from subconfluent GP+envAM12-CD-IRES-EGFP or from control GP+envAM12-Neo^R-IRES-EGFP producers was placed over marrow stromal cells plated at subconfluence. Transduction was carried out twice a day for three successive days in the presence of 6 μg/ml Lipofectamine™. Over 72 hours pursuing to the last transduction round, flow cytometry analysis for GFP expression was performed to evaluate the gene transfer efficiency.
Drug exposure was ceased 7 days later, and cells expanded for an additional week in DMEMI with 10% FBS and 50U/ml Pen/Strep and analysed by flow cytometry analysis. […] Pursuant to a 1-week drug exposure (preventing total confluence by cell passaging) and subsequent week of cell expansion, percent GFP positive cells and mean GFP fluorescence were evaluated by flow cytometry analysis.

Structure (SMILES)	% cell survival ([1]; dFdC 0.1M (so in the source), A549, MTT)	% cell survival ([2]; dFdC 0.1M (so in the source))	% cell survival ([3]; dFdC 1 μM, unselected A549-CD-IRES-EGFP)	% cell survival ([3]; dFdC same concentration (0.1), A549-CD-IRES-EGFP unselected)	% cell survival ([4]; dFdC 0.1 μM, 2.5 μM ARA-C selected CD-IRES-EGFP modified A549, MTT)	% cell survival ([4]; dFdC 1 μM, 2.5 μM ARA-C selected cells, MTT)	% cell survival ([1]; ARA-C 1 μM, untransduced A549, MTT)	% cell survival ([2]; ARA-C 1 μM)	survival of A549-CD-IRES-EGFP relative to control cells ([3]; ARA-C 1 μM)	% cell survival ([3]; ARA-C 1 μM, A549-CD-IRES-EGFP without post-transduction drug selection)	% cell survival ([4]; ARA-C 1 μM, CD-modified A549 previously selected in 2.5 μM ARA-C for 12 days, MTT)	% cell survival ([5]; ARA-C 1 μM, IRES-EGFP transduced lymphocytes)	% cell survival ([5]; ARA-C 5 μM, IRES-EGFP-modified lymphocytes)	% cell survival ([6]; ARA-C 1 μM)	% cell survival ([6]; ARA-C 5 μM)	% GFP+ cells ([7]; 0.25 μM ARA-C 1 week + 1 week culture)	% GFP+ cells ([7]; 2.5 μM ARA-C 1 week + 1 week culture)	effect on untransduced and NeoR-IRES-EGFP modified stroma ([7]; ARA-C 2.5 μM (printed 2.5 CM))	mean GFP fluorescence ([7]; selected in 1 μM ARA-C)	mean GFP fluorescence ([7]; selected in 2.5 μM ARA-C)
Nc1ccn([C@@H]2O[C@H](CO)[C@@H](O)C2(F)F)c(=O)n1 [dFdC]	15.1±0.5%	10.7±0.4%	17.2±0.7%	86.4±2.4%	92.1±1.7%	53.3±1.8%	–	–	–	–	–	–	–	–	–	–	–	–	–	–
Nc1ccn([C@@H]2O[C@H](CO)[C@@H](O)[C@@H]2O)c(=O)n1 [ARA-C, cytosine arabinoside]	–	–	–	–	–	–	15.3±0.6%	10.6±0.4%	over 3 fold	47.4±1.9%	70.7±1.3%	5.5±1.7%	0.1±0.1%	87.5±7.2%	98.1 ± 4.2%	51.5%	99.6%	completely eradicate	48.3±6.5	99.3±3.3

Source: patent publication US20040115800A1, “Selectable marker for genetically engineered cells and tissues” (priority 2003, published 2004)
